Results on 14 compounds are retold here after patent US20170281611A1, “QUINOLINES AND THEIR USE FOR TREATING ENDOPLASMIC RETICULUM STRESS-CAUSED DISEASES” (EIGER BIOPHARMACEUTICALS, INC., priority 2014, published 2017).

SMILES strings stand for the structures. Where two headings read alike, the source gives them in different places. A value given as a limit tells only on which side of the number the result lay.

The target of one data set is T1, SERCA, cardiac SR.
T1 construct: 2 mg or 7 mg of SR vesicles (optimized for skeletal or cardiac SR, respectively); from tissue; host or cells: cardiac sarcoplasmic reticulum vesicles
T1 sequence (P16615 1-997 isoform P16615-2): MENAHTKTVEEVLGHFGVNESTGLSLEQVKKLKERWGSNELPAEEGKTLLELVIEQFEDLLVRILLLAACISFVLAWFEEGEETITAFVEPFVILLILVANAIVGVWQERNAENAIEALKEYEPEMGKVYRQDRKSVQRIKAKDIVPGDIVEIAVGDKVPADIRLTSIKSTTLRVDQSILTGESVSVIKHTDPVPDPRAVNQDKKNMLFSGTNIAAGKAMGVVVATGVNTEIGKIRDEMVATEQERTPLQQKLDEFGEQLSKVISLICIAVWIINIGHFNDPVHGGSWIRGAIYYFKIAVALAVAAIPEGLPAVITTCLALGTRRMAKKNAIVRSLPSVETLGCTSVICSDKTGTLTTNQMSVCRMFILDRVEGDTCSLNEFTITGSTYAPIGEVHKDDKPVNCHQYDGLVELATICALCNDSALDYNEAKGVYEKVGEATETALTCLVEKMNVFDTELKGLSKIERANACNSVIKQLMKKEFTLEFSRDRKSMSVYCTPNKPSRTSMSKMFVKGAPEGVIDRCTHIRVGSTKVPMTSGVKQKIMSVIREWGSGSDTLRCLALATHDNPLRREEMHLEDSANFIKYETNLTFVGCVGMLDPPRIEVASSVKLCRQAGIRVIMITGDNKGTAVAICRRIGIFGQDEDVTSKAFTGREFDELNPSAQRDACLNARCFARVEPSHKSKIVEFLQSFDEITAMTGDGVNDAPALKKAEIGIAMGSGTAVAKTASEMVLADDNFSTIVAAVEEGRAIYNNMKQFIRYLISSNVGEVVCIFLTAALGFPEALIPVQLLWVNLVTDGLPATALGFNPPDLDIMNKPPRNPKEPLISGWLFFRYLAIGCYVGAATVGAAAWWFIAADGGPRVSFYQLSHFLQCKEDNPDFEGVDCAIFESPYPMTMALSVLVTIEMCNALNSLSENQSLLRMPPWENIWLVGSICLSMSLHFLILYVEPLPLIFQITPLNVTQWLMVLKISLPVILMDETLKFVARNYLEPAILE
Kind of data set: Activation of SERCA, NADH-linked enzyme-coupled ATPase assay, cardiac SR. The following applies: read-out: CSR EC50. It counts as biochemical.

In data set [1] the test system is SERCA. Kind of data set: Ca-ATPase assay, microsomal preparations from HEK 293 cells. It is filed as biochemical, human. The protocol:
A Ca-ATPase assay was performed using microsomal preparations from HEK 293 cells at a series of calcium concentrations corresponding to the physiological range, relative to controls. The ATP hydrolysis rate was measured over a range of calcium concentrations in the presence of test compounds using an NADH-linked, enzyme-coupled ATPase assay adapted for 96-well microplates, with Vmax determined by fitting the ATPase calcium-dependence to the Hill function. […] CaCl2 was added to set free [Ca^2+] to the specific values.

The nature of data set [2]: Pharmacokinetics in Beagle dogs (Table 5). It counts as in vivo. The following applies: dog, PO (10 mg/kg) vs IV (1 mg/kg), based on AUC0-t. The method, then: For pharmacokinetic evaluation, 3 male Beagle dogs were intravenously (IV) dosed (1 mg/kg body weight) and 3 male Beagle dogs were orally (PO) dosed (10 mg/kg body weight) with a test compound. Blood (approximately 1.0 mL) was collected via femoral vein into tubes containing K3EDTA anticoagulant at 0, 0.017, 0.083, 0.5, 1, 2, 4, 6, 8, and 24 hours post-dosing. Plasma samples were analyzed by LC-MS/MS. The analytical results were confirmed using quality control samples for intra-assay variation. The accuracy of >66% of the quality control samples was between 80-120% of the known value(s). A standard set of pharmacokinetic parameters were generated from concentration data including Area Under the Curve (AUC0-t and AUC0-inf), elimination half-lives, clearances, volume of distribution and bioavailabilities (based on AUC0-t), maximum plasma concentration (C0; Cmax), and time to reach maximum plasma concentration (Tmax).

The subject of data set [3] is 6-OHDA lesioned Wistar rats. Kind of data set: Rat unilateral 6-OHDA model of Parkinson's disease, stepping test. It counts as in vivo. The following applies: D11, 10 mg/kg IP once daily for 15 days, t test. The method, then:
Fifty adult male Wistar rats were used. The rats from different groups (G1 to G5) were randomized. At the beginning of the study, the rats were about 5 weeks old and naive to previous administration of any drug.
A stereotaxic injection of 6-OHDA (G2 to G5) or saline (G1: sham group) was performed to induce a unilateral dopaminergic lesion on day 0 (D0). Surgery was performed on D0 under ketamine (50 mg/kg) and xylazine (10 mg/kg). The rats of G2 to G5 received a unilateral injection of 6-OHDA (6 μL) in the left substantia nigra pars compacta. Jouve et al., J. Neurosci. 2010, 30, 9919-9928. The rats of the G1 sham group were injected with saline. During surgery, local analgesia was achieved using subcutaneous injections of lidocaine. At the end of surgery, the rats were treated with buprenorphine (0.05 mg/kg, S.C.).
The stepping test was performed after IT test, both before the 6-OHDA lesion induction on D0 and on D11. Around D−6, the stepping test was performed eight consecutive times for the right paw of each animal to obtain baseline values. On D11, the stepping test was performed one hour after the rats were dosed. Each rat was hold by an experimenter and only one of the two forelimbs was left free to move above a plane surface and the other was held with the paw touching the table. The rats were then to be moved slowly forward by the experimenter. The number of adjusting steps was countered for the right paw. Olsson et al., J. Neurosci. 1995, 15, 3863-3875.
L-DOPA and benserazide (a peripheric DOPA decarboxylase inhibitor) were prepared together as a single solution containing 0.9% NaCl and 0.1% ascorbic acid.
All the dosings were given via the IP route, once daily, Sunday excluded.

The nature of data set [4]: Pharmacokinetics in Sprague Dawley rats (Table 4). It counts as in vivo. The following applies: rat; for AUC(0-inf) / AUC(0-t) / Cmax / Tmax / clearance / half-life / MRT inf / Vd: Sprague Dawley, in vivo; for MRT inf: read-out: MRT0-∞; for Vd: read-out: Vz; for F: PO (10 mg/kg) vs IV (2 mg/kg). An excerpt: Compound D1 was formulated in 0.3% DMA/1% SOLUTOL®/98.7% saline. Compound D6 was formulated in 0.5% DMA/1% SOLUTOL®/94.5% 0.01N HCl in saline/4% NaOH (pH 4-5).

Another data set has as its system CSM14.1 cells. Kind of data set: ER stress cell survival assay (thapsigargin, […]-GLO). It is filed as cell-based. Particulars: dose-response. The protocol:
CSM14.1 cells were maintained in Complete Medium at 32° C.; wherein the Complete Medium contained Dulbecco's modified eagle medium (DMEM) with 10% fetal bovine serum (FSB), 1% L-glutamine, 100 IU/mL penicillin, and 100 μg/mL streptomycin. The cells were recovered from cultures by trypsinization and then seeded in 384 well plates (Greiner #781098) at a concentration of 1,000 cells/well in 20 μL of DMEM Assay Medium, wherein the DMEM Assay Medium contained 2% FBS, 100 IU/mL penicillin, and 100 μg/mL streptomycin. Seeding was performed using a MultiDrop Combi reagent broadcaster. The plates were incubated overnight at 32° C.
A test compound was prepared by 2-fold serial dilution in 100% DMSO using a BIOMEK® 2000 liquid handler (Beckman Coulter). A dose-response curve containing 10 concentrations of the test compound was obtained. Using a BIOMEK® FX liquid handler (Beckman Coulter), 2.5 μL of the test compound was transferred from the 100% DMSO serial dilution plate to an intermediate plate containing 47.5 μL of DMEM Assay Medium containing 2% FBS, 100 IU/mL penicillin, and 100 μg/mL streptomycin and mixed. To reduce or eliminate the interference from the compound's precipitation, 6 μL of the diluted compound was immediately transferred to the assay plate to achieve a high compound concentration of 100 μM in 99% DMEM Assay Medium and 1% DMSO. After the assay plates were incubated for 2 hrs, 4 μL of 112.5 μM thapsigargin (TG) (DMSO stock diluted into Assay TC Medium) was dispensed into each testing well with a MultiDrop Combi reagent broadcaster for a final concentration of about 15 μM TG. The tissue culture media (4 μL) containing vehicle only was transferred manually to each control cell using a 16 channel electronic pipette. […] High luminescence indicates cell survival.
Alternatively, a test compound was tested at a single compound concentration (e.g., 2 μM) to determine the effect of the compound on cell survival in comparison with vehicle.

The subject of data set [5] is SERCA. Kind of data set: Activation of SERCA, increase in Vmax (SR type not given). It counts as biochemical.
A further data set deals with MCF10A Cells. Kind of data set: In vitro viability, monolayers (2D) and spheroids (3D), normal breast tissue cells. It counts as cell-based. The following applies: Homo sapiens, MCF-10A. The protocol: (§1) The anticancer activity of a test compound was determined in vitro using mammalian tumor cells that grew as monolayers and spheroids. Spheroids represent the three-dimensional growth and organization of solid tumors, and thus are an intermediate model between monolayers of cells in culture and tumors in vivo. The cancer cell line tested was a breast cancer cell line, BT474. Normal breast tissue cells (MCF10A) were used as a control. The viability/proliferation of the cells were measured using […]-GLO® reagent.

Another data set deals with BT474 Cells. Kind of data set: In vitro anticancer activity, monolayers (2D) and spheroids (3D), BT474. It is filed as cell-based. The following applies: Homo sapiens. The method, then:
as §1

Description for SERCA, cardiac SR: Test compounds were characterized over a range of concentrations using an NADH-linked, enzyme-coupled ATPase assay. Each well contained 2 mg or 7 mg of SR vesicles (optimized for skeletal or cardiac SR, respectively), 50 mM MOPS (pH 7.0), 100 mM KCl, 5 mM MgCl2, 1 mM EGTA, 0.2 mM NADH, 1 mM phosphoenol pyruvate, 5 IU pyruvate kinase, 5 IU lactate dehydrogenase, and 3.5 mg/mL A23187 (a calcium ionophore), and CaCl2 was added to set free [Ca2+] to the specific values. The assay was started upon addition of ATP at a final concentration of 5 mM, and read in a SpectraMax Plus microplate spectrophotometer and the ATPase activities were fitted using the Hill function.

With `Cc1ccc2cccc(NC(=O)c3ccc(C(C)(C)C)cc3)c2n1` [Compound A4, 4-(tert-Butyl)-N-(2-methylquinolin-8-yl)benzamide], the EC50 (in general, the concentration needed to bring the measured effect to its halfway point) on SERCA, cardiac SR was under 20 µM.

Regarding `O=C(Nc1cccc2cccnc12)c1cccc(F)c1` [Compound A7, 3-Fluoro-N-(quinolin-8-yl)benzamide], the 50% effective concentration (EC50) at SERCA, cardiac SR was under 20 µM.

As for `CC(C)Oc1ccc(C(=O)Nc2cccc3cccnc23)cc1` [Compound A11, 4-Isopropoxy-N-(quinolin-8-yl)benzamide], the EC50 at SERCA, cardiac SR was under 20 µM.

With `Cc1ccc2cccc(NC(=O)c3cccc(OC(C)C)c3)c2n1` [Compound A13, 3-Isopropoxy-N-(2-methylquinolin-8-yl)benzamide], the “Vmax of a SERCA” value in the data set on SERCA [1] is listed as “significantly increased”. Moreover, the F in [2] was found to be 1.4%.

Turning to `Cc1ccc2cccc(NC(=O)c3ccc(Br)s3)c2n1` [Compound B1, 5-Bromo-N-(2-methylquinolin-8-yl)thiophene-2-carboxamide], in data set [3], the “number of adjusting steps” value is on record as “statistically significant increase”.

Turning to `O=C(c1ccccc1)N1CCN(c2ccnc3cc(Cl)ccc23)CC1` [Compound D1, (4-(7-Chloroquinolin-4-yl)piperazin-1-yl)(phenyl)methanone], in [4] (IV (2 mg/kg)), the AUC(0-inf) (commonly total exposure, with the tail of the curve extrapolated) was 5900 ± 454 ng·h/mL; the exposure AUC(0-t) (usually the area under the concentration-time curve up to a stated or last time point) was 5880 ± 453 ng·h/mL; the peak concentration (Cmax) – broadly, the maximum level reached in the sampled fluid or tissue – came out at 18.6 ± 1.33 µM; the Tmax (commonly the time at which the peak concentration occurs) was 0.02 h. In data set [4] (IV (2 mg/kg)), the clearance – broadly, a measure of how efficiently the substance is removed, as volume per time – was 5.67 mL/min/kg; the half-life (commonly how long it takes for the measured level to halve) was 3.21 ± 0.39 h; the MRT inf was 2.98 ± 0.17 h; the Vd turned out to be 1.57 ± 0.2 L/kg. In data set [4] (PO (10 mg/kg)), the AUC(0-inf) is 162000 ± 11900 ng·h/mL, the exposure AUC(0-t) came to 24600 ± 4100 ng·h/mL, the maximum concentration (Cmax) came to 15.3 ± 3.86 µM and the Tmax is 0.58 ± 0.38 h. In addition, in data set [4] (PO (10 mg/kg)), the half-life was 2.76 ± 0.69 h and the MRT inf was determined as 3.93 ± 0.41 h. This compound also displayed a F in data set [4] of 84%. The EC50 in the data set on CSM14.1 cells is 20 to 100 µM.

Turning to `O=C(c1ccccc1F)N1CCN(c2ccnc3cc(Cl)ccc23)CC1` [Compound D2, (4-(7-Chloroquinolin-4-yl)piperazin-1-yl)(2-fluorophenyl)methanone], in [4] (IV (2 mg/kg)), the AUC(0-inf) was found to be 1840 ± 209 ng·h/mL, the AUC(0-t) stood at 1790 ± 187 ng·h/mL, the Cmax worked out at 7.59 ± 0.55 µM and the Tmax came out at 0.017 h. Also, in data set [4] (IV (2 mg/kg)), the clearance is 18.3 mL/min/kg, the half-life is 1.77 ± 0.33 h, the MRT inf came out at 1.57 ± 0.22 h and the Vd came to 2.76 ± 0.22 L/kg. Also, in data set [4] (PO (10 mg/kg)), the AUC(0-inf) was 8060 ± 3220 ng·h/mL, the AUC(0-t) amounted to 7890 ± 3320 ng·h/mL, the peak level (Cmax) was 7.33 ± 12.5 µM and the Tmax stood at 0.42 ± 0.14 h. Further, in [4] (PO (10 mg/kg)), the half-life is 1.76 ± 0.66 h and the MRT inf was 2.88 ± 1.21 h. In data set [4], the F turned out to be 88%. In the data set on CSM14.1 cells, this compound showed a half-maximal effective concentration (EC50) of under 20 µM.

For `O=C(c1cccc(Cl)c1)N1CCN(c2ccnc3cc(Cl)ccc23)CC1` [Compound D3, (3-Chlorophenyl)(4-(7-chloroquinolin-4-yl)piperazin-1-yl)methanone], the EC50 in the data set on CSM14.1 cells lay in the range of 20 to 100 µM.

`Cc1ccc(C(=O)N2CCN(c3ccnc4cc(Cl)ccc34)CC2)cc1` [Compound D4, (4-(7-Chloroquinolin-4-yl)piperazin-1-yl)(p-tolyl)methanone]: in the data set on CSM14.1 cells, the EC50 was 20 to 100 µM.

In turn, `Cc1ccc(C(=O)N2CCN(c3ccnc4cc(Cl)ccc34)CC2)cc1Cl` [Compound D5, (3-Chloro-4-methylphenyl)(4-(7-chloroquinolin-4-yl)piperazin-1-yl)methanone] registered an EC50 in the data set on CSM14.1 cells of under 20 µM.

For the compound `O=C(C1CC1)N1CCN(c2ccnc3cc(Cl)ccc23)CC1` [Compound D7], the EC50 in the data set on CSM14.1 cells is under 20 µM.

Regarding `CCNc1ccc(C(=O)Nc2cccc3ccc(C)nc23)cc1` [Compound J1, 4-(Ethylamino)-N-(2-methylquinolin-8-yl)benzamide], in the data set on SERCA [5], the “Increase in Vmax at 10 μM” value is reported as “A′ (A′ represents an increase greater than 50%)”. The compound also returned an EC50 in the data set with CSM14.1 cells of under 20 µM.

`Cc1ccc2cccc(NC(=O)c3ccc(O)cc3)c2n1` [Compound J2, 4-Hydroxy-N-(2-methylquinolin-8-yl)benzamide]: the “Increase in Vmax at 10 μM” value with SERCA [5] is on record as “A′ (A′ represents an increase greater than 50%)”. Besides, the EC50 in the data set with CSM14.1 cells was under 20 µM.

In the case of `CCN(CC)CCNC(=O)c1c(C)[nH]c(/C=C2\C(=O)Nc3ccc(F)cc32)c1C` [Sutent, reference compound], the IC50 (as a rule, the concentration at which inhibition is half-maximal) came to 3 µM in the data set with MCF10A Cells (monolayers (2D), read-out: IC50 (2D)); 7 µM in the data set with MCF10A Cells (spheroids (3D), read-out: IC50 (3D)); 10 µM in the data set on BT474 Cells (BT-474, monolayers (2D), read-out: IC50 (2D)); 10 µM in the data set on BT474 Cells (BT-474, spheroids (3D), read-out: IC50 (3D)).
